Data as given in US11505558B1, “Antiviral heterocyclic compounds” (Enanta Pharmaceuticals, Inc., priority 2019, dated 2022).

How the values were obtained:
[1] = tested on: recombinant HMPV CAN97-83 (MPV-GFP1); assay: HMPV antiviral assay (MPV-GFP1 eGFP fluorescence in Vero E6 cells); format: cell-based; details: human metapneumovirus, Vero C1008, 120 h, read-out: HMPV EC50
Procedure: HMPV antiviral activity was evaluated using a recombinant version of HMPV CAN97-83 engineered to contain the coding sequence for enhanced green fluorescence protein (eGFP) in the 3′ end of the virus genome (MPV-GFP1, ViraTree). Vero E6 cells ([…]) were seeded at a density of 12,000 cells/100 μL/well into 96-well cell plates one day prior to the assay. On the day of screening, the cell culture medium was aspirated from the wells and cells were washed twice with serum-free Eagle's Modified Essential Medium (EMEM, ATCC #) containing 1% penicillin-streptomycin (Invitrogen) (SF-EMEM). Cell washes were performed by dispensing 100 μL SF-EMEM per well and immediately aspirating the wash medium from the well. Following the second wash step, serum-free OptiMEM (Invitrogen, Cat No.) (SF-OptiMEM) containing 0.5 μg/mL TPCK-Trypsin (VENDOR) and 1% penicillin-streptomycin was added to the cells at 50 μL/well. Compounds were added into the 96-well plates using a JANUS automated liquid handling system (VENDOR). Compounds were initially diluted 1:50 into an intermediate 96-well plate containing SF-OptiMEM prior to transfer to the assay plate (25 μL/well). Each of the test compounds were tested in duplicate wells at final concentrations starting from 8 μM or 2 μM using ½ stepwise dilutions for a total of 8 points. Virus infection was performed by preparing a working stock of MPV-GFP1 at a multiplicity of infection (MOI) equal to 0.05/25 μL and aliquoting 25 μL of virus inoculum to the compound and positive control wells. SF-OptiMEM was added (25 μL/well) to the appropriate wells to serve as a virus-free negative control for the assay. The final DMSO concentration of all wells is 0.5%. Plates were incubated at 32° C., 5% CO2 for 5 days.
After 5 days incubation, eGFP fluorescence intensity was measured at […] using a Spectramax i3X plate reader (VENDOR). Percent viral inhibition was calculated using the following equation: y=[[…]−(XQ/XP)]×100 Where XQ is the fluorescence intensity measured in a well containing recombinant MPV-GFP1-infected, compound-treated cells and XP is the average fluorescence intensity measured in the wells containing untreated cells infected with recombinant virus. EC50 values were then calculated by non-linear regression using a four parameter curve logistic equation. The curve fit model employed was XLFit Dose Response One Site Model 200: y=(A+(B/(1+((x/C)^D)))) Where A is the minimum y value, B is the maximum y value, C is the log EC50 value, and D is the slope factor. […] EC50 ranges are as follows: A<0.5 μM; B>0.5 μM.

[2] = tested on: genotype A, "Long" strain RSV; assay: RSV-A assay (CPE, ATPlite readout in Hep-2 cells); format: cell-based; details: human respiratory syncytial virus, HEp-2, Hep-2 cells, genotype A "Long" strain RSV, MOI 0.1; read-out: Human RSV-A (“Long” strain) EC50
Summary of the method: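 Protection from RSV-induced cytopathic effect, measured as ATPlite luminescence after 5 days, gave EC50 values. Assay used genotype A Long strain at MOI 0.1 on Hep-2 cells seeded at 8,000/well in DMEM growth media with 10% FBS; compounds tested as 2-fold dilutions in duplicate.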

Compound | EC50 [1] | EC50 [2]
C[C@]1(C(N)=O)COc2c1cc([C@@](O)(CNC(=O)c1cc(Nc3ncccn3)c3ncccc3c1)C(F)(F)F)nc2-c1ccc(F)cc1 [Example 337] | > 0.5 µM | < 0.2 µM
C[C@]1(C(N)=O)COc2c1cc([C@@](O)(CNC(=O)c1cc(Cl)c3ncccc3c1)C(F)(F)F)nc2-c1ccc(F)cc1 [Example 221] | < 0.5 µM | < 0.2 µM
COc1cc(C(=O)NC[C@](O)(c2cc3c(c(-c4ccc(F)cc4)n2)OC[C@]3(C)C(N)=O)C(F)(F)F)ccc1OC1CC1 [Example 62] | < 0.5 µM | < 0.2 µM
COc1cc(C(=O)NC[C@](O)(c2cc3c(c(-c4ccc(F)c(Cl)c4)n2)OC[C@]3(C)C(N)=O)C2CC2)cc2cc(C(F)(F)F)cnc12 [Example 536] | < 0.5 µM | < 0.2 µM
COc1cc(C(=O)NC[C@](O)(c2cc3c(c(-c4ccc(F)cc4)n2)OCC3(F)C(N)=O)C(F)(F)F)cc2cc(Cl)c(C)nc12 (stereo partly drawn) [Example 668] | < 0.5 µM | < 0.2 µM
COc1cc(C(=O)NC[C@](O)(c2cc3c(c(-c4ccc(F)cc4)n2)OC[C@]3(C)C(=O)NCC(C)(C)O)C(F)(F)F)cc2cn(C)nc12 [Example 635] | < 0.5 µM | < 0.2 µM
C[C@]1(C(N)=O)COc2c1cc([C@@](O)(CNC(=O)c1cc(Nc3cccnc3)c3ncccc3c1)C(F)(F)F)nc2-c1ccc(F)cc1 [Example 339] | > 0.5 µM | < 0.2 µM
C[C@]1(C(N)=O)COc2c1cc([C@@](O)(CNC(=O)c1cc(OC3CC3)c3nc(N)sc3c1)C(F)(F)F)nc2-c1ccc(F)c(Cl)c1 [Example 544] | < 0.5 µM | < 0.2 µM
C[C@]1(C(N)=O)COc2c1cc([C@@](O)(CNC(=O)c1ccc(OC3CC3)c(-c3ncco3)c1)C(F)(F)F)nc2-c1ccc(F)cc1 [Example 124] | > 0.5 µM | < 0.2 µM
CC(C)(Oc1cc(C(=O)NC[C@](O)(c2cc3c(c(-c4ccc(F)cc4)n2)OC[C@]3(C)C(N)=O)C(F)(F)F)cc2cccnc12)C(N)=O [Example 380] | > 0.5 µM | < 0.2 µM
C[C@]1(C(N)=O)COc2c1cc([C@@](O)(CNC(=O)c1cc(NC(N)=O)c3ncccc3c1)C(F)(F)F)nc2-c1ccc(F)cc1 [Example 408] | > 0.5 µM | < 0.2 µM
C[C@]1(C(N)=O)COc2c1cc([C@@](O)(CNC(=O)c1cc(OC3CC3)c3nc(N)sc3c1)C(F)(F)F)nc2-c1ccc(F)cc1 [Example 543] | < 0.5 µM | < 0.2 µM
COc1ncc(C(=O)NC[C@](O)(c2cc3c(c(-c4ccc(F)cc4)n2)OC[C@]3(C)CNCC2CC2)C(F)(F)F)s1 [Example 36] | > 0.5 µM | > 0.2 µM
Cc1cnc2c(NC(=O)NC3CC3)cc(C(=O)NC[C@](O)(c3cc4c(c(-c5ccc(F)cc5)n3)OC[C@]4(C)C(N)=O)C(F)(F)F)cc2c1 [Example 417] | < 0.5 µM | < 0.2 µM
C[C@]1(C(N)=O)COc2c1cc([C@@](O)(CNC(=O)c1cc(Oc3cnccn3)c3ncccc3c1)C(F)(F)F)nc2-c1ccc(F)cc1 [Example 387] | > 0.5 µM | < 0.2 µM
C[C@]1(C(N)=O)COc2c1cc([C@@](O)(CNC(=O)c1cc(Nc3cnccn3)c3ncccc3c1)C(F)(F)F)nc2-c1ccc(F)cc1 [Example 341] | > 0.5 µM | < 0.2 µM
Cc1cnc(-c2ccc(C(=O)NC[C@](O)(c3cc4c(c(-c5ccc(F)cc5)n3)OC[C@]4(C)C(N)=O)C(F)(F)F)cc2OC2CC2)o1 [Example 179] | > 0.5 µM | < 0.2 µM
Cc1cnc2c(O)cc(C(=O)NC[C@](O)(c3cc4c(c(-c5ccc(F)cc5)n3)OC[C@]4(C)C(N)=O)C(F)(F)F)cc2c1 [Example 252] | > 0.5 µM | < 0.2 µM
C[C@]1(C(N)=O)COc2c1cc([C@@](O)(CNC(=O)c1ccc3nnccc3c1)C(F)(F)F)nc2-c1ccc(F)cc1 [Example 230] | > 0.5 µM | < 0.2 µM
Cc1cnc2c(Nc3cnccn3)cc(C(=O)NC[C@](O)(c3cc4c(c(-c5ccc(F)cc5)n3)OC[C@]4(C)C(N)=O)C(F)(F)F)cc2c1 [Example 547] | > 0.5 µM | < 0.2 µM

Compound | EC50 [1] | EC50 [2]
Cc1cnc2ccc(C(=O)NC[C@](O)(c3cc4c(c(-c5ccc(F)cc5)n3)OC[C@]4(C)C(N)=O)C(F)(F)F)cc2c1 [Example 524] | < 0.5 µM | < 0.2 µM
C[C@]1(C(N)=O)COc2c1cc([C@@](O)(CNC(=O)c1cc(Oc3ccncc3)c3ncccc3c1)C(F)(F)F)nc2-c1ccc(F)cc1 [Example 388] | > 0.5 µM | < 0.2 µM
C[C@]1(C(N)=O)COc2c1cc([C@@](O)(CNC(=O)c1cc(OC(F)(F)F)c3nc(N)sc3c1)C(F)(F)F)nc2-c1ccc(F)c(Cl)c1 [Example 542] | < 0.5 µM | < 0.2 µM
C[C@]1(C(N)=O)COc2c1cc([C@@](O)(CNC(=O)c1cc(NCC(N)=O)c3ncccc3c1)C(F)(F)F)nc2-c1ccc(F)cc1 [Example 384] | > 0.5 µM | < 0.2 µM
COc1cc(C(=O)NC[C@](O)(c2cc3c(c(-c4ccc(F)c(Cl)c4)n2)OC[C@]3(C)C(N)=O)C(F)(F)F)cc2cc(C(F)(F)F)cnc12 [Example 558] | < 0.5 µM | < 0.2 µM
C[C@]1(C(N)=O)COc2c1cc([C@@](O)(CNC(=O)c1cc(OC3CC3)c3nc(CO)ccc3c1)C(F)(F)F)nc2-c1ccc(F)cc1 [Example 406] | > 0.5 µM | < 0.2 µM
C[C@]1(C(N)=O)COc2c1cc([C@@](O)(CNC(=O)c1cc(OCc3ncco3)c3ncccc3c1)C(F)(F)F)nc2-c1ccc(F)cc1 [Example 390] | > 0.5 µM | < 0.2 µM
Cn1cc2cc(C(=O)NC[C@](O)(c3cc4c(c(-c5ccc(F)c(Cl)c5)n3)OC[C@]4(C)C(N)=O)C3CC3)ccc2n1 [Example 638] | < 0.5 µM | < 0.2 µM
COc1cc(C(=O)NC[C@](O)(c2cc3c(c(-c4ccc(F)c(Cl)c4)n2)OC[C@]3(C)C(N)=O)C(F)(F)F)cc2cccnc12 [Example 86] | < 0.5 µM | < 0.2 µM
COc1cc(C(=O)NC[C@](O)(c2cc3c(c(-c4ccc(F)c(Cl)c4)n2)OC[C@]3(C)C(N)=O)C(F)(F)F)cc2cc(C)cnc12 [Example 257] | < 0.5 µM | < 0.2 µM
CC(C)(O)[C@H](F)CNC(=O)[C@@]1(C)COc2c1cc([C@@](O)(CNC(=O)c1cc(OC3CC3)c3ncccc3c1)C(F)(F)F)nc2-c1ccc(F)cc1 [Example 459] | > 0.5 µM | < 0.2 µM
C[C@](O)(CNC(=O)c1cc(OC2CC2)c2ncccc2c1)c1cc2c(c(-c3ccc(F)cc3)n1)OC[C@]2(C)C(N)=O [Example 265] | < 0.5 µM | < 0.2 µM
COc1cc(C(=O)NC[C@](O)(c2cc3c(c(-c4ccc(F)c(F)c4)n2)OC[C@]3(C)C(N)=O)C(F)(F)F)cc2cccnc12 [Example 87] | > 0.5 µM | < 0.2 µM
C[C@]1(C(N)=O)COc2c1cc([C@@](O)(CNC(=O)c1cc(Nc3ccncc3)c3ncccc3c1)C(F)(F)F)nc2-c1ccc(F)cc1 [Example 336] | > 0.5 µM | < 0.2 µM
Cc1cnc2c(NC(=O)NC3(C)CC3)cc(C(=O)NC[C@](O)(c3cc4c(c(-c5ccc(F)cc5)n3)OC[C@]4(C)C(N)=O)C(F)(F)F)cc2c1 [Example 550] | < 0.5 µM | < 0.2 µM
C[C@]1(C(=O)N[C@H]2C[C@@H](O)C2)COc2c1cc([C@@](O)(CNC(=O)c1cc(OC3CC3)c3ncccc3c1)C(F)(F)F)nc2-c1ccc(F)cc1 [Example 466] | < 0.5 µM | < 0.2 µM
Cc1cnc2c(NC(=O)c3cnc(C)o3)cc(C(=O)NC[C@](O)(c3cc4c(c(-c5ccc(F)cc5)n3)OC[C@]4(C)C(N)=O)C(F)(F)F)cc2c1 [Example 624] | < 0.5 µM | < 0.2 µM
C[C@]1(C(N)=O)COc2c1cc([C@@](O)(CNC(=O)c1ccc3ncc(Cl)cc3c1)C(F)(F)F)nc2-c1ccc(F)cc1 [Example 526] | < 0.5 µM | < 0.2 µM
C[C@]1(C(=O)NCCO)COc2c1cc([C@@](O)(CNC(=O)c1cc(OC3CC3)c3ncccc3c1)C(F)(F)F)nc2-c1ccc(F)cc1 [Example 465] | < 0.5 µM | < 0.2 µM
